From the CheMixHub viscosity set

Test: xn = mol fraction of the nth substance listed

CCCCOC(C)=O + CCC(C)O
viscosity [mPa·s], 100 kPa
Settings	x1 = 0.081	x1 = 0.16	x1 = 0.24	x1 = 0.35	x1 = 0.44	x1 = 0.5598	x1 = 0.6499	x1 = 0.74	x1 = 0.85	x1 = 0.94
293.15 K	2.444	1.639	1.195	0.976	0.907	0.859	0.827	0.794	0.757	0.736
298.15 K	2.041	1.423	1.045	0.87	0.805	0.768	0.746	0.732	0.703	0.681
303.15 K	1.797	1.267	0.941	0.767	0.713	0.692	0.677	0.663	0.649	0.636
308.15 K	1.523	1.084	0.844	0.692	0.644	0.618	0.604	0.597	0.592	0.584
313.15 K	1.28	0.951	0.756	0.633	0.585	0.555	0.544	0.541	0.546	0.542
318.15 K	1.111	0.828	0.681	0.575	0.531	0.506	0.5	0.5	0.502	0.501
323.15 K	0.963	0.748	0.619	0.535	0.497	0.477	0.466	0.46	0.455	0.457

CCCN + CCC(C)O
303.15 K, 101 kPa
Settings	viscosity [mPa·s]
x1 = 0.008438	2.439
x1 = 0.01874	2.408
x1 = 0.02903	2.377
x1 = 0.04186	2.343
x1 = 0.0458	2.329
x1 = 0.05767	2.3
x1 = 0.06786	2.277
x1 = 0.07593	2.253
x1 = 0.08515	2.224

CCCCOC(C)=O + CCCCCC
viscosity [mPa·s]
Settings	298.15 K	308.15 K
101 kPa, x1 = 0.0521	0.3	0.282
101 kPa, x1 = 0.1491	0.319	0.3
101 kPa, x1 = 0.2486	0.341	0.321
101 kPa, x1 = 0.3517	0.368	0.346
101 kPa, x1 = 0.4482	0.397	0.372
101 kPa, x1 = 0.4932	0.412	0.385
101 kPa, x1 = 0.5515	0.433	0.403
101 kPa, x1 = 0.6483	0.472	0.436
101 kPa, x1 = 0.7486	0.519	0.474
101 kPa, x1 = 0.8491	0.574	0.517
101 kPa, x1 = 0.9461	0.635	0.565
101.3 kPa, x1 = 0.1335	0.3275	–
101.3 kPa, x1 = 0.2322	0.3509	–
101.3 kPa, x1 = 0.3294	0.3762	–
101.3 kPa, x1 = 0.4644	0.4191	–
101.3 kPa, x1 = 0.5644	0.4558	–
101.3 kPa, x1 = 0.6697	0.4996	–
101.3 kPa, x1 = 0.8002	0.5626	–
101.3 kPa, x1 = 0.8967	0.6164	–
101.3 kPa, x1 = 0.9324	0.6456	–
